From patent publication US20200316087A1, “NOVEL COMBINATION THERAPY FOR ANXIETY DISORDERS, EPILEPSY, AND PAIN” (priority 2017, published 2020)

How the values were obtained:
[1] = test system: electroshock-induced seizures; test: Mouse electroshock-induced seizure model; format: in vivo; details: mice; for Electroshock to Criteria: MED producing maximal protection (0% seizures); for Electroshock (minimal effective dose, MED): lowest dose with statistically significant protection vs vehicle
Experimental: This assay detects effects of compounds that produce generalized seizures and those that dampen seizure spread. Male, CD1 mice (Taconic Farms) were studied at weights of 21-32 g. Mice=10/dose) were used with Wahlquist Model H stimulator with 0.2 sec stimulation with corneal electrodes. […] Mice were euthanized immediately following the test. Tonic extension was used as the primary endpoint.
(§1) For the in vivo assays, minimal effective doses (MED) were calculated in mg/kg. MED was defined as the lowest dose administered that produced statistically significant protection compared to vehicle control in the anticonvulsant assays. The MED, or minimal toxic dose (MTD) for motor impairment, was the minimal dose required to produce statistically-significant impairment in motor performance. Doses tested are shown in the figures and tables and are generally dosed in ½ log increments. The protective index (PT) was calculated at the MTD/MED.

PTZ-induced clonus = test: Pentylenetetrazole (PTZ, 35 mg/kg s.c.)-induced clonic convulsions; format: in vivo; details: rats; for PTZ Clonus to Criteria 1: MED producing maximal protection (0% seizures); for PTZ Clonus Potency (MED): lowest dose with statistically significant protection; for PTZ Clonus Potency (MED) / protection against PTZ-induced clonus: PTZ 35 mg/kg s.c.
Experimental: After the inverted screen test, the rats were dosed with pentylenetetrazole (PTZ)(35 mg/kg, s.c.) in a volume of 1 ml/kg and placed in an observation cage (40.6×20.3×15.2 cm) with a floor containing […] of wood chip bedding material. PTZ dose was determined to be ˜EC97 for producing clonic convulsions.

[2] = test system: seizures in amygdala kindled rats; test: Basolateral amygdala kindling; format: in vivo; details: for After-Discharge Duration to Criteria: MED for producing after-discharge duration ≤30 sec; for After-Discharge Threshold to Criteria: MED for producing after-discharge threshold ≥3; for Seizure Severity to Criteria: MED for producing seizure severity score ≤2; for After-Discharge Duration Potency (MED) / After-Discharge Threshold Potency (MED) / Seizure Severity Poteny (MED) / effect on adjusted after-discharge threshold (ADT) / effect on after-discharge duration (ADD) / effect on seizure severity score / kindling measures / Seizure free scores (seizure severity=0): amygdala kindled rats; for Seizure free scores (seizure severity=0): groups of 8
Experimental: Seizure kindling models evaluate effects of drugs on the sensitization of the nervous system to seizure induction. In this test, drugs were evaluated for their ability to impact seizure parameters in rats that were fully kindled by daily electrical stimulation of their amygdala. Valproic acid was used as a positive control. Experiments were conducted using the general procedures of Zwart et al. (J. Pharmacol. Exp. Ther., 2014, 351:124-133). A bipolar electrode for electrical stimulation and EEG recording was stereotaxically implanted into one hemisphere of the basolateral amygdala (AP −2.2, ML −4.8, DV −8.5 mm, relative to bregma) of male Wistar rats. After post-operative recovery, electrical kindling begins, where a subthreshold constant current (400 μA, 1 ms, monophasic square-wave pulses, 60 Hz for 1 sec) is given once a day Monday-Friday for about 4-6 weeks until a rat is fully kindled. A fully kindled rat has experienced 10 consecutive stage 5 seizures or 10 of its last 12 were stage 5 according to the Racine Scale.
Twelve fully kindled rats were assigned to this study, and eight rats were selected and randomized to initial compound treatment groups from baseline after discharge threshold (ADT), seizure severity score, and after discharge duration (ADD). […] On test day, rats were dosed 30 min prior to beginning stimulation. After the pre-treatment, rats were stimulated using an ascending staircase sequence beginning at 10 μA and increasing in log unit steps of 10, 16, 25, 40, 65, 100, 160, 250, and 400 μA. Animals were stimulated until they were assigned a Seizure Severity Score for a visually observably seizure or they reached the 400 μA threshold limit. ADD was determined following testing. ADT was the current that induced a seizure; measurements were scale-adjusted to capture the stimulation scale change required to observe a seizure from the previous baseline to the ADT scored on test day. […] The average scale adjusted ADT was approximately 0.63 μA in vehicle treated rats.
Racine score of behavioral response to stimulation: 0=no behavioral response; 1=immobility, staring and/or facial clonus; 2=head nodding, jaw clonus, and/or tongue protrusion; 3=unilateral forelimb clonus; 4=bilateral forelimb clonus and/or rearing; 5=bilateral forelimb clonus with rearing and loss of balance.
After-Discharge Duration (ADD) is the duration of the first after-discharge.
ADT, ADD, and severity scores were analyzed by ANOVA. Seizure severity data was also analyzed by the nonparametric Skillings-Mack test, a generalization of the Friedman test for one-way repeated measures designs. Posthoc tests when reported were either by Dunnett's method (seizure severity) or using Wilcoxon sign rank tests (ADT and ADD). Valproic acid, used as a positive control was not used in ANOVA calculations.

[3] = Rat inverted screen test (motor impairment); details: male, Sprague-Dawley, rat, in vivo
Text: (§2) The motor effects of Diazepam and KRM-II-81 were studied on the inverted screen. The inverted screen test is used to measure whether or not a test compound induces muscle relaxation. When a test subject is placed on a wire screen which is then inverted, the reaction is to climb to the opposite side so they are no longer hanging upside down.
(§3) Male, Sprague Dawley rats (Harlan Sprague Dawley, Indianapolis, Ind.) were used and weighed 90-110 g when evaluated in experiments. […] Rats were placed onto the top of a wire screen, which was then inverted so that the rats were hanging upside down.
(§4) Male Sprague-Dawley rats (n=5) were dosed i.p. (vehicle=1% carboxymethyl cellulose) with diazepam (3, 10, or 30 mg/kg), KRM-II-81 (10, 30, or 60 mg/kg) or HZ-166 (30 mg/kg) 30 minutes prior to testing. Rats were placed onto the top of a wire screen, which was then inverted so that the rats were hanging upside down. […] Results were analyzed using ANOVA (Dunnett's test: *P<0.05).
as §1

[4] = test system: motor performance on an inverted screen; test: Rat inverted screen test (motor impairment); details: rats
Text: as §2, §3, §4, §1

[5] = test system: immobility in forced-swim test; test: Forced-swim assay; format: in vivo, mice; details: male NIH Swiss mice, i.p., 30 min prior
Experimental: Male NIH Swiss mice (Envigo, Indianapolis, Ind.) were studied. Mice were placed in clear plastic cylinders (diameter: 10 cm; height: 25 cm) filled with 6 cm of water (22-25° C.) for six min. […] The duration of immobility during the last four min of the six min test period was scored. A mouse was recorded as immobile when floating motionless or making only those movements necessary to keep its head above water.

SMILES	Electroshock to Criteria [1] [mg/kg]	Electroshock (minimal effective dose, MED) [1] [mg/kg]	protection against electroshock-induced seizures [1]	PTZ Clonus to Criteria 1 (PTZ-induced clonus) [mg/kg]	PTZ Clonus Potency (MED) (PTZ-induced clonus) [mg/kg]	protection against PTZ-induced clonus (PTZ-induced clonus)	After-Discharge Duration to Criteria [2] [mg/kg]	After-Discharge Threshold to Criteria [2] [mg/kg]	Seizure Severity to Criteria [2] [mg/kg]	After-Discharge Duration Potency (MED) [2] [mg/kg]	After-Discharge Threshold Potency (MED) [2] [mg/kg]	Seizure Severity Poteny (MED) [2] [mg/kg]	effect on adjusted after-discharge threshold (ADT) [2]	effect on after-discharge duration (ADD) [2]	effect on seizure severity score / kindling measures [2]	Seizure free scores (seizure severity=0) [2]	immobility in forced-swim assay [5]	also measured
C#Cc1ccc2c(c1)C(c1ccccn1)=NCc1c(-c3cnco3)ncn1-2 [KRM-II-81, 5-(8-ethynyl-6-(pyridin-2-yl)-4H-benzo[f]imidazo[1,5-a][1,4]diazepin-3-yl)oxazole]	30	10	fully prevented	30	30	fully prevented	10	10	10	10	10	10	significantly increased	significant decreases	most efficacious and potent	7/8	moderate, dose-dependent decrease in immobility	ED50 at 30 min ([3]; ip): 121 mg/kg; muscle relaxation on inverted screen (result in words) ([4]; i.p., 30 min prior, KRM-II-81 10-60 mg/kg, HZ-166 30 mg/kg): Neither HZ-166 nor KRM-II-81 induced significant muscle relaxation; dose at which signs of muscle relaxation began to appear ([4]; i.p., inverted screen): 60 mg/kg
C#Cc1ccc2c(c1)C(c1ccccc1)=NCc1c(-c3cnco3)ncn1-2 [KRM-II-82, 5-(8-ethynyl-6-phenyl-4H-benzo[f]imidazo[1,5-a][1,4]diazepin-3-yl)oxazole]	30	30	fully prevented	30	10	dose-dependently suppressed	>30	30	>30	>30	10	10	significantly increased	trend for a significant effect	trend toward efficacy	1/8	significantly decreased immobility time	MTD at 60 seconds ([3]; intraperitoneal): 150 mg/kg; effect on motor performance ([4]; up to 30 mg/kg, inverted screen): without significant effect on motor performance
